According to patent US20090061009A1, “Composition and Method of Treatment of Bacterial Infections” (priority 2007, published 2009):
Counter-ions that a name gives are not always drawn.

Tests used:
[1] = tested on: MAC; settings: 100 mg/kg IM five days a week for four weeks; cited from earlier work
[2] = tested on: E. coli ATCC 25922; experiment: Sepsis (septicemia) model in mice; type: in vivo
Protocol: Sepsis (septicemia) model: Escherichia coli O157 was chosen as a model infection being one of the most common nosocomial pathogens. Female BALB/C mice were infected by the intraperitoneal injection of 2.5×10^8 cells (LD90). Treatment started 2 hours post bacterial inoculation
E. coli ATCC 25922 was stored at −80° C. until use in this study. The bacterium was transferred onto Trypticase Soy Agar (TSA) plates and incubated for 18 h at 37° C. A suspension of the bacterium was prepared in PBS and added to sterile 5% hog mucin. An aliquot of the suspension was added to 5% hog gastric mucin to obtain the required concentration of inoculum (3.5×10^6 CFU/mL). Each mouse was inoculated with 0.5 mL of the appropriate inoculum preparation by IP injection. 2 hours later mice were treated with a single injection of the appropriate concentration of Gentamicin sulfate in dose 10 mg/kg (calculated by base).

[3] = tested on: glioblastoma; experiment: Glioblastoma model, survival; type: in vivo; settings: day 100 after tumor inoculation, same dose and schedule
[4] = tested on: Mycobacterium tuberculosis strain H37Rv (ATCC 27294); experiment: Tuberculosis model in BALB/c mice; type: in vivo; settings: for Survival rate, % D14: day 14; for Survival rate, % D28 / Bacterial count in lungs, log CFU D28: day 28; for Bacterial count in lungs, log CFU D28: 10.06 ± 0.304 at D1
[5] = BALB/c mice, 100 mg/kg IP 2/week, cumulative 800 mg/kg SM base
[6] = BALB/c mice, 200 mg/kg IP 5/week, cumulative 4000 mg/kg SM base

## [H]/N=C(/N)N[C@H]1[C@H](O)[C@@H](O)[C@H](O[C@@H]2O[C@@H](C)[C@](O)(C=O)[C@H]2O[C@@H]2O[C@@H](CO)[C@H](O)[C@@H](O)[C@@H]2NC)[C@@H](N/C(N)=N\[H])[C@@H]1O [Streptomycin]
[1]
  bacterial counts of MAC from spleen, lungs and liver: significant reduction

## Gentamicin sulfate [Gentamicin sulfate solution]
[2]; 10 mg/kg single injection, day 2
  Day of death after inoculation: 2 (number of deaths): 3
[2]; 10 mg/kg single injection, day 3
  Day of death after inoculation: 3 (number of deaths): 1
[2]; 10 mg/kg single injection, day 4
  Day of death after inoculation: 4 (number of deaths): 1
[2]; E.Coli induced septicemia in mice, untreated 11%
  Survival rates: 50%
[2]; mice, 1.8 × 10^6 E. coli per mouse IP, single injection 10 mg/kg (as base) 2 hours later, observed six days
  No. dead/No. treated: 5/10

## COc1cccc2c1C(=O)c1c(O)c3c(c(O)c1C2=O)C[C@@](O)(C(=O)CO)C[C@@H]3O[C@H]1C[C@H](N)[C@H](O)[C@H](C)O1 [Doxorubicin in solution, Doxorubicin]
[3]
  survival rate: 0%

## [H]/N=C(/N)N[C@H]1[C@H](O)[C@@H](O)[C@H](O[C@@H]2O[C@@H](C)[C@](O)(C=O)[C@H]2O[C@@H]2O[C@@H](CO)[C@H](O)[C@@H](O)[C@@H]2NC)[C@@H](N/C(N)=N\[H])[C@@H]1O [SM USP solution, Streptomycin sulfate]
[4]; 800 mg cumulative dose of SM
  survival rate: 58%
[4]; [5]
  Survival rate, % D14: 83%
  Survival rate, % D28: 58%
[4]; BALB/c mice, 100 mg/kg IP 2/week
  Bacterial count in lungs, log CFU D28: 8.37 ± 0.367 log CFU
[4]; BALB/c mice, 200 mg/kg IP 5/week for 28 days, day 56
  Bacterial count in lungs, log CFU D56: 8.86 ± 0.18 log CFU
[4]; [6]
  Survival rate, % D14: 92%
  Survival rate, % D28: 92%
[4]; BALB/c mice, 200 mg/kg IP 5/week
  Bacterial count in lungs, log CFU D28: 7.57 ± 0.268 log CFU
[4]; positive control, cumulative 4000 mg SM
  survival rate: 92%
